# Assay results as given in PubChem BioAssay (NCI).
#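 GI50 is the concentration that inhibits growth by half. TGI is the concentration that stops growth completely.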
# Assays:
# Assay in all cases: NCI tumour cell line growth inhibition, 384-well format
# SK-MEL-28 melanoma = test system: SK-MEL-28 melanoma
# SN12C renal = test system: SN12C renal
# NCI-H23 lung = test system: NCI-H23 lung
# SNB-75 CNS = test system: SNB-75 CNS
# MALME-3M melanoma = test system: MALME-3M melanoma
# CAKI-1 renal = test system: CAKI-1 renal
# OVCAR-4 ovarian = test system: OVCAR-4 ovarian
# UO-31 renal = test system: UO-31 renal
# IGROV1 ovarian = test system: IGROV1 ovarian
# NCI-H226 lung = test system: NCI-H226 lung
# DU-145 prostate = test system: DU-145 prostate
# HCT-15 colon = test system: HCT-15 colon
# HOP-92 NSCLC = test system: HOP-92 NSCLC
# A498 renal = test system: A498 renal
# UACC-257 melanoma = test system: UACC-257 melanoma
# SF-295 CNS = test system: SF-295 CNS
# 786-0 renal = test system: 786-0 renal
# OVCAR-5 ovarian = test system: OVCAR-5 ovarian
# UACC-62 melanoma = test system: UACC-62 melanoma
# HOP-62 NSCLC = test system: HOP-62 NSCLC
# M14 melanoma = test system: M14 melanoma
# TK-10 renal = test system: TK-10 renal
# EKVX NSCLC = test system: EKVX NSCLC
# LOX IMVI melanoma = test system: LOX IMVI melanoma
# KM12 colon = test system: KM12 colon
# ACHN renal = test system: ACHN renal
# HT29 colon = test system: HT29 colon
# NCI/ADR-RES ovarian = test system: NCI/ADR-RES ovarian
# COLO 205 colon = test system: COLO 205 colon
structure (smiles),measurement,setting,value
O=C(c1c(F)ccc(NS(=O)(=O)N2CC[C@@H](F)C2)c1F)c1c[nH]c2ncc(-c3cnc(C4CC4)nc3)cc12,GI50,SK-MEL-28 melanoma,< 0.01 µM
same,TGI,SK-MEL-28 melanoma,0.0127 µM
same,GI50,SN12C renal,7.66 µM
same,TGI,SN12C renal,> 100 µM
same,GI50,NCI-H23 lung,4 µM
same,TGI,NCI-H23 lung,15.3 µM
same,GI50,SNB-75 CNS,5.65 µM
same,TGI,SNB-75 CNS,17.9 µM
same,GI50,MALME-3M melanoma,< 0.01 µM
same,GI50,CAKI-1 renal,3.09 µM
same,TGI,CAKI-1 renal,9.22 µM
same,GI50,OVCAR-4 ovarian,11.2 µM
same,TGI,OVCAR-4 ovarian,27.6 µM
same,GI50,UO-31 renal,8.46 µM
same,TGI,UO-31 renal,23.5 µM
same,GI50,IGROV1 ovarian,3.08 µM
same,TGI,IGROV1 ovarian,13.5 µM
same,GI50,NCI-H226 lung,5.36 µM
same,TGI,NCI-H226 lung,18 µM
same,GI50,DU-145 prostate,4.58 µM
same,TGI,DU-145 prostate,17.7 µM
same,GI50,HCT-15 colon,4.8 µM
same,TGI,HCT-15 colon,20.9 µM
same,GI50,HOP-92 NSCLC,4.13 µM
same,TGI,HOP-92 NSCLC,25.1 µM
same,GI50,A498 renal,6.38 µM
same,TGI,A498 renal,24.3 µM
same,GI50,UACC-257 melanoma,< 0.01 µM
same,TGI,UACC-257 melanoma,0.0246 µM
same,GI50,SF-295 CNS,5.27 µM
same,TGI,SF-295 CNS,19.8 µM
same,GI50,786-0 renal,5.62 µM
same,TGI,786-0 renal,29.7 µM
same,GI50,OVCAR-5 ovarian,8.29 µM
same,TGI,OVCAR-5 ovarian,27.7 µM
same,GI50,UACC-62 melanoma,< 0.01 µM
same,TGI,UACC-62 melanoma,0.0116 µM
same,GI50,HOP-62 NSCLC,5.2 µM
same,TGI,HOP-62 NSCLC,20.6 µM
same,GI50,M14 melanoma,< 0.01 µM
same,TGI,M14 melanoma,0.0149 µM
same,GI50,TK-10 renal,11.8 µM
same,TGI,TK-10 renal,35.4 µM
same,GI50,EKVX NSCLC,8.14 µM
same,TGI,EKVX NSCLC,21.6 µM
same,GI50,LOX IMVI melanoma,0.0301 µM
same,TGI,LOX IMVI melanoma,4.13 µM
same,GI50,KM12 colon,6.17 µM
same,TGI,KM12 colon,18.8 µM
same,GI50,ACHN renal,4.77 µM
same,TGI,ACHN renal,20.7 µM
same,GI50,HT29 colon,0.015 µM
same,TGI,HT29 colon,14.5 µM
same,GI50,NCI/ADR-RES ovarian,19 µM
same,TGI,NCI/ADR-RES ovarian,41.3 µM
same,GI50,COLO 205 colon,< 0.01 µM
same,TGI,COLO 205 colon,0.021 µM
